Experimental findings from article PMC5214259, “Identification of Guanosine 5′-diphosphate as Potential Iron Mobilizer: Preventing the Hepcidin-Ferroportin Interaction and Modulating the Interleukin-6/Stat-3 Pathway” (Scientific Reports, 2017) are described below.

This test has as its target T1, hepcidin (Homo sapiens, UniProt P81172).
T1 construct: gene HAMP; hepcidin-25 (25 amino acid peptide hormone)
T1 sequence (P81172 60-84 limits assumed): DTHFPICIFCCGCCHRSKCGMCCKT
The test is described as follows: UV-visible absorption titration (Kd); thermal shift assay (SYPRO orange, Tm […] to […] °C with equimolar GDP). The class given is binding.

By Kd is commonly meant the concentration at which binding is half-saturated. In the case of `Nc1nc2c(ncn2[C@@H]2O[C@H](COP(=O)(O)OP(=O)(O)O)[C@@H](O)[C@H]2O)c(=O)[nH]1` [ZINC08215481, guanosine 5′-diphosphate], the Kd was 5.88 µM.
